Data as given in PubChem BioAssay (NCI).
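Tested at 5 concentrations; 48 h exposure; 96-well plates; endpoints linearly interpolated, else capped at highest concentration. Here, GI50 denotes the concentration required for 50% inhibition of growth. TGI: total growth inhibition.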

Columns and labels:
Test in all cases: DTP human tumour cell line panel, 48 h
HL-60(TB) leukemia = system: HL-60(TB) leukemia
NCI/ADR-RES ovarian = system: NCI/ADR-RES ovarian
NCI-H226 lung = system: NCI-H226 lung
HCC-2998 colon = system: HCC-2998 colon
HOP-92 NSCLC = system: HOP-92 NSCLC
OVCAR-5 ovarian = system: OVCAR-5 ovarian
UO-31 renal = system: UO-31 renal
CAKI-1 renal = system: CAKI-1 renal
SK-MEL-5 melanoma = system: SK-MEL-5 melanoma
SW-620 colon = system: SW-620 colon
NCI-H522 lung = system: NCI-H522 lung
HCT-15 colon = system: HCT-15 colon
COLO 205 colon = system: COLO 205 colon
SR leukemia = system: SR leukemia
OVCAR-3 ovarian = system: OVCAR-3 ovarian
SN12C renal = system: SN12C renal
SK-MEL-28 melanoma = system: SK-MEL-28 melanoma
PC-3 prostate = system: PC-3 prostate
A549 NSCLC = system: A549 NSCLC
SK-OV-3 ovarian = system: SK-OV-3 ovarian
BT-549 breast = system: BT-549 breast
MDA-MB-435 = system: MDA-MB-435
SNB-19 CNS = system: SNB-19 CNS
HS 578T breast = system: HS 578T breast
U251 CNS = system: U251 CNS
EKVX NSCLC = system: EKVX NSCLC
TK-10 renal = system: TK-10 renal
786-0 renal = system: 786-0 renal
MALME-3M melanoma = system: MALME-3M melanoma
T-47D breast = system: T-47D breast
HCT-116 colon = system: HCT-116 colon
MOLT-4 leukemia = system: MOLT-4 leukemia
NCI-H460 lung = system: NCI-H460 lung
SF-539 CNS = system: SF-539 CNS
M14 melanoma = system: M14 melanoma
A498 renal = system: A498 renal
UACC-62 melanoma = system: UACC-62 melanoma
OVCAR-4 ovarian = system: OVCAR-4 ovarian
SF-268 CNS = system: SF-268 CNS
RXF 393 renal = system: RXF 393 renal
OVCAR-8 ovarian = system: OVCAR-8 ovarian
HOP-62 NSCLC = system: HOP-62 NSCLC
UACC-257 melanoma = system: UACC-257 melanoma
IGROV1 ovarian = system: IGROV1 ovarian
HT29 colon = system: HT29 colon
MDA-MB-231 breast = system: MDA-MB-231 breast
SF-295 CNS = system: SF-295 CNS
ACHN renal = system: ACHN renal
SNB-75 CNS = system: SNB-75 CNS
SK-MEL-2 melanoma = system: SK-MEL-2 melanoma
LOX IMVI melanoma = system: LOX IMVI melanoma
KM12 colon = system: KM12 colon
K-562 leukemia = system: K-562 leukemia

SMILES: OC1CCN(CCCOc2c3ccc(Cl)cc3nc3c2oc2ccc(Cl)cc23)CC1
- GI50 (HL-60(TB) leukemia): 1.48 µM
- TGI (HL-60(TB) leukemia): 3.23 µM
- GI50 (NCI/ADR-RES ovarian): 0.718 µM
- TGI (NCI/ADR-RES ovarian): 2.77 µM
- GI50 (NCI-H226 lung): 1.67 µM
- TGI (NCI-H226 lung): 4.13 µM
- GI50 (HCC-2998 colon): 0.868 µM
- TGI (HCC-2998 colon): 15.8 µM
- GI50 (HOP-92 NSCLC): 0.588 µM
- TGI (HOP-92 NSCLC): 6.77 µM
- GI50 (OVCAR-5 ovarian): 1.38 µM
- TGI (OVCAR-5 ovarian): 2.85 µM
- GI50 (UO-31 renal): 0.768 µM
- TGI (UO-31 renal): 2.17 µM
- GI50 (CAKI-1 renal): 0.877 µM
- TGI (CAKI-1 renal): 2.12 µM
- GI50 (SK-MEL-5 melanoma): 2.23 µM
- TGI (SK-MEL-5 melanoma): 5.03 µM
- GI50 (SW-620 colon): 0.455 µM
- TGI (SW-620 colon): 1.79 µM
- GI50 (NCI-H522 lung): 1.8 µM
- TGI (NCI-H522 lung): 11.1 µM
- GI50 (HCT-15 colon): 0.518 µM
- TGI (HCT-15 colon): 2.07 µM
- GI50 (COLO 205 colon): 1.16 µM
- TGI (COLO 205 colon): 3.18 µM
- GI50 (SR leukemia): 0.595 µM
- TGI (SR leukemia): 2.62 µM
- GI50 (OVCAR-3 ovarian): 1.56 µM
- TGI (OVCAR-3 ovarian): 4.12 µM
- GI50 (SN12C renal): 0.864 µM
- TGI (SN12C renal): 2.38 µM
- GI50 (SK-MEL-28 melanoma): 1.77 µM
- TGI (SK-MEL-28 melanoma): 3.18 µM
- GI50 (PC-3 prostate): 1.23 µM
- TGI (PC-3 prostate): 2.55 µM
- GI50 (A549 NSCLC): 1.05 µM
- TGI (A549 NSCLC): 2.5 µM
- GI50 (SK-OV-3 ovarian): 3.37 µM
- TGI (SK-OV-3 ovarian): 15.5 µM
- GI50 (BT-549 breast): 4.51 µM
- TGI (BT-549 breast): 18.9 µM
- GI50 (MDA-MB-435): 1.34 µM
- TGI (MDA-MB-435): 2.7 µM
- GI50 (SNB-19 CNS): 1.45 µM
- TGI (SNB-19 CNS): 3.22 µM
- GI50 (HS 578T breast): 2.75 µM
- TGI (HS 578T breast): 17.2 µM
- GI50 (U251 CNS): 0.876 µM
- TGI (U251 CNS): 2.27 µM
- GI50 (EKVX NSCLC): 2.84 µM
- TGI (EKVX NSCLC): 13.2 µM
- GI50 (TK-10 renal): 3.05 µM
- TGI (TK-10 renal): 8.4 µM
- GI50 (786-0 renal): 1.13 µM
- TGI (786-0 renal): 2.49 µM
- GI50 (MALME-3M melanoma): 1.73 µM
- TGI (MALME-3M melanoma): 3.48 µM
- GI50 (T-47D breast): 5.77 µM
- TGI (T-47D breast): 36.5 µM
- GI50 (HCT-116 colon): 0.417 µM
- TGI (HCT-116 colon): 1.59 µM
- GI50 (MOLT-4 leukemia): 0.443 µM
- TGI (MOLT-4 leukemia): 1.96 µM
- GI50 (NCI-H460 lung): 0.465 µM
- TGI (NCI-H460 lung): 1.99 µM
- GI50 (SF-539 CNS): 1.36 µM
- TGI (SF-539 CNS): 2.67 µM
- GI50 (M14 melanoma): 1.43 µM
- TGI (M14 melanoma): 2.84 µM
- GI50 (A498 renal): 6.74 µM
- TGI (A498 renal): 21.1 µM
- GI50 (UACC-62 melanoma): 1.83 µM
- TGI (UACC-62 melanoma): 3.78 µM
- GI50 (OVCAR-4 ovarian): 1.24 µM
- TGI (OVCAR-4 ovarian): 2.79 µM
- GI50 (SF-268 CNS): 1.15 µM
- TGI (SF-268 CNS): 4.5 µM
- GI50 (RXF 393 renal): 1.24 µM
- TGI (RXF 393 renal): 2.52 µM
- GI50 (OVCAR-8 ovarian): 1.54 µM
- TGI (OVCAR-8 ovarian): 18.9 µM
- GI50 (HOP-62 NSCLC): 1.85 µM
- TGI (HOP-62 NSCLC): 12.5 µM
- GI50 (UACC-257 melanoma): 1.79 µM
- TGI (UACC-257 melanoma): 3.68 µM
- GI50 (IGROV1 ovarian): 1.71 µM
- TGI (IGROV1 ovarian): 15 µM
- GI50 (HT29 colon): 0.505 µM
- TGI (HT29 colon): 1.77 µM
- GI50 (MDA-MB-231 breast): 1.26 µM
- TGI (MDA-MB-231 breast): 2.87 µM
- GI50 (SF-295 CNS): 3.02 µM
- TGI (SF-295 CNS): 15.8 µM
- GI50 (ACHN renal): 0.504 µM
- TGI (ACHN renal): 1.69 µM
- GI50 (SNB-75 CNS): 2.85 µM
- TGI (SNB-75 CNS): 16.3 µM
- GI50 (SK-MEL-2 melanoma): 5.32 µM
- TGI (SK-MEL-2 melanoma): 17.7 µM
- GI50 (LOX IMVI melanoma): 0.298 µM
- TGI (LOX IMVI melanoma): 1.42 µM
- GI50 (KM12 colon): 1.06 µM
- TGI (KM12 colon): 3.61 µM
- GI50 (K-562 leukemia): 0.417 µM
- TGI (K-562 leukemia): 1.93 µM
